Entries after “also recorded” stand apart in the source; their conditions may differ.
Assays:
[1] = test system: male C57BL/6N mice; test: Murine NASH model (HFD, glucose/fructose water, thermoneutral housing); assay type: in vivo, mouse
Experimental: To model NASH in murine liver, male C57BL/6N mice were challenged with HFD for 24 weeks in conjunction with 18.9 g/L glucose&23.1 g/L fructose containing drinking water under thermoneutral housing condition (29°C) for 12 weeks before the administration of UCB9608 through HFD (15 mg/kg) for another 12 weeks. Then the mice were analysed in EcoMRI for body composition measurement before 6 hours fasting, followed by dissection to harvest liver and sample blood.
Total RNA was extracted from adipose depots, liver or in vitro cell cultures via Trizol reagent (Invitrogen) according to the manufacturer's instructions. Genomic DNA was removed from the crude RNA samples by DNase treatment (NEB BioLabs). For individual sample, 1 µg of total RNA was used to convert into cDNA library by using the High-Capacity cDNA Reverse transcription kit (Applied Biosystems, 4368813). Quantitative PCR was performed using KAPA SYBR FAST Universal kit (Roche, KK4618) on ViiA7 (Applied Biosystems) and the relative transcript levels were normalized to […] expression via ΔΔCt method. Table 2: Sequences of qPCR primers used in this study.
Plasma collected from mice under different conditions was used to determine levels of lipolysis and liver injury. FFA levels were measured via NEFA assay kit (Wako NEFA kit). TG levels were determined via TG assay kit (Roche Trig/GB reagent). ALT (MAK052, Sigma) and AST (MAK055, Sigma) assay kits were used to determine ALT and AST activity according to the manufacturer's instructions. The absorbance was monitored using Synergy Gen5 Platereader.
Weight of liver pieces (50-100 mg) was recorded before homogenization by 1 mL isopropanol per 50 mg tissue. The homogenates were incubated at room temperature with rotating before spinning down to remove debris at 2000×g for 10 min and collect supernatant. The TG levels were determined (Roche Trig/GB reagent) in Synergy Gen5 Platereader and normalized to the weight of liver pieces.
For NASH cohort, livers were dissected and fixed with 4% PFA in PBS for 24 h at 4°C. The samples were sent to the University of Zurich for histologic analyses. Briefly, liver tissues were dehydrated and embedded in paraffin and underwent section at 3 µm. The slides were stained with hematoxylin and eosin (H&E) and Gomori Green Trichrome directly or stained with anti-cleaved Caspase 3 after antigen retrieval. Afterwards, the images were captured by digital slide scanners and the grade of steatosis, ballooning, inflammation and fibrosis were quantified via the NASH Clinical Research Network Scoring System (Kleiner,D.E. et al. Hepatology 41, (2005)). To perform ORO staining, the fixed samples were sectioned, and the slides were stained via Oil Red O solution, followed by counter-staining with eosin. The images were acquired by digital slide scanners.

[2] = test system: human liver graft
Experimental: A human liver graft was perfused for 8 days, after being discarded from all Swiss transplant centers. Use of discarded grafts was approved by local authorities (Kantonale Ethik Kommission Zürich KEK Nr. 2017-000412). […] The liver was procured with a total ischemia time of 40 min after circulatory death of the donor. It was flushed with IGL-1 solution and perfused for 2 h with Belzer MPS at 8°C. The infrahepatic vena cava was closed with a suture and the hepatic artery, portal vein, suprahepatic vena cava and common bile duct were cannulated with steel cannulas. The graft was subsequently perfused with whole blood and a custom built normothermic perfusion machine (Eshmuminov,D. et al, Nat Biotechnol 38, (2020)). Hepatic arterial pressure was controlled to be 80/50 mmHg, allowing for an average flow of 0.25 L/min. A vasodilator, epoprostenol, was automatically infused to keep arterial flow stable. Oxygenation was automatically controlled with a setpoint partial pressure of oxygen equal to 12 kPa. Portal venous flow was controlled to be at 1 L/min, resulting in a pressure of 2 mmHg on average. Further, oxygenation of portal blood was automatically regulated to achieve 65% saturation in the vena cava. Use of an electric pinch valve further allowed for pressure regulation in the vena cava, keeping a constant pressure of 0 mmHg. Glucose levels were automatically controlled by using a real-time glucose sensor (CCIT) and automated insulin infusions, keeping glucose levels at 7 mmol/L from the second day of perfusion onwards. A dialysis bypass was used to clear waste metabolites and control haematocrit levels by using a fixed dialysate influx rate of 200 mL/h and an automatically controlled outflux. […] After 8 days of perfusion, the liver weight decreased to 1507g (without gallbladder) and was sent for pathological examination.
Perfusate was mixed with 6 units of red blood cell concentrate (A+), 5 units of fresh frozen […], one unit of thrombocytes and 200 mL of 20% human albumin (CSL Behring). An initial bolus of 2.25 g Tazobactam and 500 mg Methylprednisolone was administered after priming. During the perfusion, 1000 U of heparin were infused per hour. Further, 2.25 g of Tazobactam, 3.36 g of ursodesoxycholic acid and 500 mg of methylprednisolone were continuously infused per day. UCB9608 was administered as a daily bolus by adding 300 µL of 50 mM solution directly to the blood reservoir, targeting a final concentration in the perfusate of 10 µM. On the first day, a larger bolus of 600 µL was given.
Adipose depots, liver pieces, differentiated iBAs, HepG2, HEK293T and HEK293-AAV cell types were homogenized in RIPA buffer (50 mM Tris-HCl pH 7.4, 150 mM NaCl, 2 mM EDTA, 1.0% Triton X100, 0.5% sodium deoxycholate) with protease inhibitors (Complete, Roche) and phosphatase inhibitors (Halt phosphatase inhibitor cocktail, ThermoFisher). The homogenates were centrifuged at 12,000×g for 10 min at 4°C to remove debris and collect whole cell extract (WCE). The concentration of WCE was determined by DC Protein Assay (Bio-Rad). After boiling the sample with Lämmeli buffer at 95°C for 5 min, equal amount of proteins was loaded and separated on 12% SDS-PAGE. […]

[3] = test system: mouse model with organ engraftment; conditions: in vivo; cited from earlier work
[4] = NASH mice, UCB9608 through HFD (15 mg/kg) 12 weeks
[5] = NASH mice, liver histology, UCB9608 12 weeks vs vehicle
[6] = biopsies from both lobes, unchanged in the two control grafts

COc1ccc(NC(=O)N2CCN(c3nc(N)nc4c3cnn4C)[C@@H](C)C2)c(C)c1 [UCB9608]
inflammation levels by transcript levels of inflammatory markers ([1]; NASH livers, qPCR (Fig. 7j)): mitigation | degree of fibrosis-related marker expression ([1]; NASH livers, qPCR (Fig. 7k), vs vehicle): substantially ameliorated | ALT activity in the plasma [1, 4]: reduction | AST activity in the plasma [1, 4]: reduction | TG levels in the plasma [1, 4]: reduction; also recorded: reduced | fatty acid oxidation (liver) [1, 4]: significant elevation | hepatic TG levels [1, 4]: reduced | liver mass/body weight ratio [1, 4]: reduced | fat mass ([1]; NASH mice, UCB9608 through HFD (15 mg/kg) 12 weeks, EcoMRI): significant loss | body weight ([1]; NASH mice, UCB9608 through HFD (15 mg/kg) 12 weeks, vs vehicle): significant loss | NAFLD activity score [1, 5]: significantly lower | fibrosis grade [1, 5]: significantly lower | inflammation levels [1, 5]: significantly lower | liver injury [1, 5]: significantly lower | steatosis grade [1, 5]: significantly lower | cell viability (ATP analysis and histology) [2]: remained until the end of perfusion | time liver function was well preserved [2]: at least 6 days | liver weight after perfusion ([2]; after 8 days, without gallbladder, initial weight 2740g with gall bladder): 1507 g | macrovesicular steatosis after perfusion ([2]; after 8 days, 15% before perfusion, pathological examination): less than 5% | ATGL levels in liver biopsies [2, 6]: substantially elevated | TG deposition in liver biopsies [2, 6]: reduced | non-esterified fatty acids (NEFAs) from dialysate ([2]; during perfusion, UCB9608 daily, target 10 µM): detected | efficacy in the mouse model with organ engraftment [3]: effective

— EP4623912A1, “A METHOD FOR DEFATTENING A STEATOTIC LIVER EX VIVO” (ETH Zurich, priority 2024, dated 2025)
